The results in this text go back to US20220233512A1, “INHIBITING AN IMMUNE RESPONSE MEDIATED BY ONE OR MORE OF TLR2, RAGE, CCR5, CXCR4 AND CD4” (priority 2020, published 2022).

The target of the test is T1, mu opiate receptor (MOR) (Rattus norvegicus, UniProt P33535).
T1 construct: from tissue; host or cells: striatum (membrane preparation)
Briefly: MOR agonist activity using [35S]GTPgS binding assay in striatal membranes. As to conditions: for MOR agonist activity (preliminary study): average of two runs. The test is classed as biochemical. The arrangement: MOR agonist activity (preliminary study): unit of the concentration uncertain. An outline of the steps:
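Rat striatal membranes incubated 5 min at 30 °C in pH 7.5 HEPES buffer with 100 mM NaCl, 1 mM MgCl2 and 0.5 nM [35S]GTPgS, then 5 min with compound. Gαo-bound [35S]GTPgS isolated by immunoprecipitation and counted by liquid scintillation.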

Setting [1] is: 0.1 μM compound as agonist, Series C-2 table.
[2] abbreviates: 1 μM compound as agonist, Series C-2 table.
Where [3] appears, read: 0.1 μM compound as agonist, Series C-1 table.
[4] abbreviates: 1 μM compound as agonist, Series C-1 table.

T1 sequence (P33535 whole entry): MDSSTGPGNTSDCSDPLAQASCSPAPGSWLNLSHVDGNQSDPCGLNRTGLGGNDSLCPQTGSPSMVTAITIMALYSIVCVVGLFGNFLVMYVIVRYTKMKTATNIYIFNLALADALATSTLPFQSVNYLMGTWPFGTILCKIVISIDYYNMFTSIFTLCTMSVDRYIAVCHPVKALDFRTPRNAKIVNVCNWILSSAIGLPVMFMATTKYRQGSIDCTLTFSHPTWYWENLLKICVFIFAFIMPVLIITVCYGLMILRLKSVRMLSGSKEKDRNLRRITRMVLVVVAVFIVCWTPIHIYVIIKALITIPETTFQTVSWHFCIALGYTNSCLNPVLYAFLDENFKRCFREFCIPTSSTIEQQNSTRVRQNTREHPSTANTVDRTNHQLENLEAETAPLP

For `CCOC(=O)CN1CCC2(CC1)OCCN2S(=O)(=O)c1ccc(C(C)=O)cc1` [Compound C0099M], the “MOR agonist activity ([35S]GTPgS binding to Gao)” value under setting [1] was found to be 157.2%; the “MOR agonist activity ([35S]GTPgS binding to Gao)” value (1 μM + BFNA, Series C-2 table) came to 114.7%; the “MOR agonist activity ([35S]GTPgS binding to Gao)” value under setting [2] stood at 195.7%.

Turning to `CC(=O)c1ccc(S(=O)(=O)N2CCOC23CCN(CC(=O)O)CC3)cc1` [Compound C0100M], the “MOR agonist activity ([35S]GTPgS binding to Gao)” value is reported as 173.6% under setting [1]; 195.6% (1 μM + BFNA, Series C-2 table); 245.9% under setting [2].

As to `CCCCN1CCC2(CC1)OCCN2S(=O)(=O)c1ccc(C(C)=O)cc1` [Compound C0101M], the “MOR agonist activity ([35S]GTPgS binding to Gao)” value is 138.2% under setting [1]; 174.8% (1 μM + BFNA, Series C-2 table); 274.3% under setting [2].

`CCCCN1CCC2(CC1)OCCN2S(=O)(=O)c1ccc(OC)cc1` [Compound C0102M]: the “MOR agonist activity ([35S]GTPgS binding to Gao)” value under setting [1] came to 131.8%; the “MOR agonist activity ([35S]GTPgS binding to Gao)” value (1 μM + BFNA, Series C-2 table) amounted to 150.4%; the “MOR agonist activity ([35S]GTPgS binding to Gao)” value under setting [2] is recorded as 272.0%.

For `CN1CCC2(CC1)NC(=O)CN2Cc1ccccc1` [Compound C0104M], the “MOR agonist activity ([35S]GTPgS binding to Gao)” value is, setting by setting: under setting [1], 188.2%; (1 μM + BFNA, Series C-2 table) 143.8%; under setting [2], 238.9%.

As to `CN1CCC2(CC1)OCCN2S(=O)(=O)c1ccc(S(C)(=O)=O)cc1` [Compound C0106M], the “MOR agonist activity ([35S]GTPgS binding to Gao)” value under setting [1] is recorded as 171.8%; the “MOR agonist activity ([35S]GTPgS binding to Gao)” value (1 μM + BFNA, Series C-2 table) worked out at 117.2%; the “MOR agonist activity ([35S]GTPgS binding to Gao)” value under setting [2] amounted to 240.7%.

For `CC(=O)c1ccc(S(=O)(=O)N2CC(CN(C)C)OC23CCN(C)CC3)cc1` (stereo not drawn) [Compound C0108M], the “MOR agonist activity ([35S]GTPgS binding to Gao)” value by setting is: under setting [1], 205.6%; (1 μM + BFNA, Series C-2 table) 76.9%; under setting [2], 258.5%.

For the compound `O=C1CNC2(CCNCC2)N1Cc1ccccc1` [Compound C0114M], the “MOR agonist activity ([35S]GTPgS binding to Gao)” value is, setting by setting: under setting [1], 114.0%; (1 μM + BFNA, Series C-2 table) 35.9%; under setting [2], 144.3%.

As for `O=C1CN(Cc2ccccc2)C2(CCNCC2)N1` [Compound C0115M], the “MOR agonist activity ([35S]GTPgS binding to Gao)” value reads like this: under setting [1], 177.2%; (1 μM + BFNA, Series C-2 table) 118.4%; under setting [2], 226.8%.

On to `CS(=O)(=O)c1ccc(S(=O)(=O)N2CCOC23CCNCC3)cc1` [Compound C0116M], for which the “MOR agonist activity ([35S]GTPgS binding to Gao)” value under setting [1] is reported as 258.4%; the “MOR agonist activity ([35S]GTPgS binding to Gao)” value (1 μM + BFNA, Series C-2 table) was 152.0%; the “MOR agonist activity ([35S]GTPgS binding to Gao)” value under setting [2] came to 302.8%.

As to `CC(=O)c1ccc(S(=O)(=O)N2CC(CN(C)C)OC23CCNCC3)cc1` (stereo not drawn) [Compound C0118M], the “MOR agonist activity ([35S]GTPgS binding to Gao)” value is, setting by setting: under setting [1], 166.2%; (1 μM + BFNA, Series C-2 table) 79.2%; under setting [2], 261.5%.

Turning to `CC(=O)c1ccc(S(=O)(=O)N2C(Cc3c[nH]cn3)C(=O)NC23CCNCC3)cc1` (stereo not drawn) [Compound C0119M], the “MOR agonist activity ([35S]GTPgS binding to Gao)” value is on record as 105.7% under setting [1]; 35.1% (1 μM + BFNA, Series C-2 table); 167.8% under setting [2].

For the compound `O=C1CNC2(CCN(CC3CC3)CC2)N1Cc1ccccc1` [Compound C0124M], the “MOR agonist activity ([35S]GTPgS binding to Gao)” value under setting [1] is given as 252.0%; the “MOR agonist activity ([35S]GTPgS binding to Gao)” value (1 μM + BFNA, Series C-2 table) is on record as 61.4%; the “MOR agonist activity ([35S]GTPgS binding to Gao)” value under setting [2] worked out at 305.1%.

For `O=C1CN(Cc2ccccc2)C2(CCN(CC3CC3)CC2)N1` [Compound C0125M], the “MOR agonist activity ([35S]GTPgS binding to Gao)” value amounted to 168.6% under setting [1]; 159.7% (1 μM + BFNA, Series C-2 table); 195.2% under setting [2].

As for `CS(=O)(=O)c1ccc(S(=O)(=O)N2CCOC23CCN(CC2CC2)CC3)cc1` [Compound C0126M], the “MOR agonist activity ([35S]GTPgS binding to Gao)” value by setting is: under setting [1], 181.8%; (1 μM + BFNA, Series C-2 table) 108.5%; under setting [2], 265.3%.

Consider `CC(=O)c1ccc(S(=O)(=O)N2CC(CN(C)C)OC23CCN(CC2CC2)CC3)cc1` (stereo not drawn) [Compound C0128M], for which the “MOR agonist activity ([35S]GTPgS binding to Gao)” value under setting [1] turned out to be 197.8%; the “MOR agonist activity ([35S]GTPgS binding to Gao)” value (1 μM + BFNA, Series C-2 table) stood at 63.9%; the “MOR agonist activity ([35S]GTPgS binding to Gao)” value under setting [2] is given as 286.0%.

Take `COc1ccc(S(=O)(=O)N2CCOC23CCN(C(C)C)CC3)cc1` [Compound C0133M]: the “MOR agonist activity ([35S]GTPgS binding to Gao)” value by setting is: under setting [1], 139.4%; (1 μM + BFNA, Series C-2 table) 72.4%; under setting [2], 214.8%.

Consider `Cc1ccc(S(=O)(=O)N2CCOC23CCN(CC2CC2)CC3)cc1` [Compound C0134M], for which the “MOR agonist activity ([35S]GTPgS binding to Gao)” value is 158.5% under setting [1]; 46.6% (1 μM + BFNA, Series C-2 table); 207.3% under setting [2]. For the same compound, the “MOR agonist activity (preliminary study)” value is, setting by setting: (1 mM + bNFA) 53.2%; (0.1 (unit uncertain) compound as agonist) 150.7%; (1 (unit uncertain) compound as agonist) 224.0%.

On to `CCc1ccc(S(=O)(=O)N2CCOC23CCN(CC2CC2)CC3)cc1` [Compound C0135M], for which the “MOR agonist activity ([35S]GTPgS binding to Gao)” value amounted to 161.3% under setting [1]; 113.3% (1 μM + BFNA, Series C-2 table); 310.1% under setting [2].

Take `O=C1CN(Cc2ccccc2)C2(CCN(S(=O)(=O)c3cc(Cl)cc(Cl)c3O)CC2)N1` [Compound C0138M]: the “MOR agonist activity ([35S]GTPgS binding to Gao)” value under setting [3] came to 126.9%; the “MOR agonist activity ([35S]GTPgS binding to Gao)” value (1 μM + BFNA, Series C-1 table) is 51.5%; the “MOR agonist activity ([35S]GTPgS binding to Gao)” value under setting [4] is recorded as 183.9%.

As for `O=C1CN(Cc2ccccc2)C2(CCN(S(=O)(=O)c3cc(Cl)c(O)c(Cl)c3)CC2)N1` [Compound C0139M], the “MOR agonist activity ([35S]GTPgS binding to Gao)” value by setting is: under setting [3], 156.1%; (1 μM + BFNA, Series C-1 table) 51.0%; under setting [4], 206.6%.

Consider `O=S(=O)(c1ccc2ccccc2c1)N1CCC2(CC1)OCCN2S(=O)(=O)c1ccc2ccccc2c1` [Compound C0140M], for which the “MOR agonist activity ([35S]GTPgS binding to Gao)” value by setting is: under setting [3], 126.1%; (1 μM + BFNA, Series C-1 table) 83.0%; under setting [4], 215.4%.

On to `O=S(=O)(c1cccs1)N1CCC2(CC1)OCCN2S(=O)(=O)c1cccs1` [Compound C0141M], for which the “MOR agonist activity ([35S]GTPgS binding to Gao)” value amounted to 161.5% under setting [3]; 47.9% (1 μM + BFNA, Series C-1 table); 213.9% under setting [4].

As for `COc1ccc(S(=O)(=O)N2CCC3(CC2)NCCC(=O)N3)cc1` [Compound C0142M], the “MOR agonist activity ([35S]GTPgS binding to Gao)” value runs as follows: under setting [1], 143.7%; (1 μM + BFNA, Series C-2 table) 98.7%; under setting [2], 192.5%.

With `O=S(=O)(c1cccc2cccnc12)N1CCC2(CC1)OCCN2S(=O)(=O)c1cccc2cccnc12` [Compound C0143M], the “MOR agonist activity ([35S]GTPgS binding to Gao)” value stood at 81.0% under setting [3]; 81.0% under setting [1]; 86.5% (1 μM + BFNA, Series C-1 table); 86.5% (1 μM + BFNA, Series C-2 table); 193.3% under setting [4]; 193.3% under setting [2].
